Laboratory results reported in ChEMBL document CHEMBL5465560, “Selectivity Literature for EUbOPEN Chemogenomic Library” (2024).
Values belong to the compound of their own block, whether it stands above or below them.

What was measured:
[1] = molecular target: T1, Serine/threonine-protein kinase D2 (Homo sapiens) (UniProt Q9BZL6); experiment: Selectivity interaction (ActivX KiNativ screen (kinase selectivity in THP-1 cell lysates)) EUB0000639a PRKD2; assay type: subcellular; conditions: lysate, at 0.01 µM
T1 sequence (whole entry): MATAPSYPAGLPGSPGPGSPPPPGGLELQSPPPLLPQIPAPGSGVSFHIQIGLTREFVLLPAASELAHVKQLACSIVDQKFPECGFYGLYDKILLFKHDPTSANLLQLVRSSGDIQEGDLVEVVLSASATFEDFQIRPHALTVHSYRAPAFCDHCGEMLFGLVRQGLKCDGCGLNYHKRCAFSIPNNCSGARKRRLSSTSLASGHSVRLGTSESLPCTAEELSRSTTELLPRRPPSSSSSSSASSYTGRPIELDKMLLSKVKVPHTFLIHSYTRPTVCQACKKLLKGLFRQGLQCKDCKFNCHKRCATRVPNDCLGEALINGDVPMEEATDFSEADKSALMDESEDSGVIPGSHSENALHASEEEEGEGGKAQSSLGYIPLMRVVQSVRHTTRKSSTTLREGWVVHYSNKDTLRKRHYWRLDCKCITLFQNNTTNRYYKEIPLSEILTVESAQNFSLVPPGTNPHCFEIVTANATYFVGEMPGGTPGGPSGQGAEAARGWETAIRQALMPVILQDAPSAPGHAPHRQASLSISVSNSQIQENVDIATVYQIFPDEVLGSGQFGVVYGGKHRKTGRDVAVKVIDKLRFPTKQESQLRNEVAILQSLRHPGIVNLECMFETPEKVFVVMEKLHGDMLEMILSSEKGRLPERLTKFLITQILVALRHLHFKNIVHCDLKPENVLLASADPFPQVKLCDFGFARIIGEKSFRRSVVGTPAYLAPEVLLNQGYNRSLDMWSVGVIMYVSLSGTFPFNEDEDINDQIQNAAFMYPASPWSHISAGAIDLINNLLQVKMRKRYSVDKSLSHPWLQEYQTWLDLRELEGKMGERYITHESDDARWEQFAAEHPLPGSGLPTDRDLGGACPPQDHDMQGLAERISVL

[2] = molecular target: N-lysine methyltransferase SMYD2 (Homo sapiens) (UniProt Q9NRG4); conditions: at 10 µM
[3] = molecular target: Histone-lysine N-methyltransferase SETDB1 (Homo sapiens) (UniProt Q15047); experiment: Selectivity interaction (PWWP, WD40, and Tudor domain panel (DSLS measurements, literature)) EUB0000270b SETDB1
[4] = molecular target: T2, Dual specificity protein kinase TTK (Homo sapiens) (UniProt P33981); experiment: Selectivity interaction (KinomeScan (DiscoverX)) EUB0000595a TTK; conditions: at 10 µM
T2 sequence (whole entry): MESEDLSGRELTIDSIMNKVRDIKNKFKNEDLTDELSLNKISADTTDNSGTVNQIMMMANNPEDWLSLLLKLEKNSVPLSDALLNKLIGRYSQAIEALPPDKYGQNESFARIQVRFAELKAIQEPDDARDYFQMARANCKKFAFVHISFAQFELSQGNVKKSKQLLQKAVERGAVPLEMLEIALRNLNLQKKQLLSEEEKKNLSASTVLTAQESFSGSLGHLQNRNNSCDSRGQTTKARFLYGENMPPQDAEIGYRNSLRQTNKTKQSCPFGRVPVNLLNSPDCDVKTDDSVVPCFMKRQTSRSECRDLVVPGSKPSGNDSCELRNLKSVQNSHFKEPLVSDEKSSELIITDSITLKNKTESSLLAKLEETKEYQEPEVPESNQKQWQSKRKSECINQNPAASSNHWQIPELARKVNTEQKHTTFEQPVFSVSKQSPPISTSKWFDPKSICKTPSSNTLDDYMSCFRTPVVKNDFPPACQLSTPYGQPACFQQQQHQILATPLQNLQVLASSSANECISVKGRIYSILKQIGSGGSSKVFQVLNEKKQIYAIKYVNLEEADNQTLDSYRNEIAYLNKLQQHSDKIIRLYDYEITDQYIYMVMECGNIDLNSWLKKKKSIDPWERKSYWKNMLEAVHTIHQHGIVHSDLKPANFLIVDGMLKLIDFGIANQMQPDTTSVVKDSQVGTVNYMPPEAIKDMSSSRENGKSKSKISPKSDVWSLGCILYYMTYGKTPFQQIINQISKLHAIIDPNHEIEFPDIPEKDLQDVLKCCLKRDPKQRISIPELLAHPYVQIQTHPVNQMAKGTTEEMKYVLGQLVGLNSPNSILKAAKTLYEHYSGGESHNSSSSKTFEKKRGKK

[5] = molecular target: T3, Mitogen-activated protein kinase kinase kinase 13 (Homo sapiens) (UniProt O43283); experiment: Selectivity interaction (KinomeScan (DiscoverX)) EUB0000092b MAP3K13; conditions: at 10 µM
T3 sequence (whole entry): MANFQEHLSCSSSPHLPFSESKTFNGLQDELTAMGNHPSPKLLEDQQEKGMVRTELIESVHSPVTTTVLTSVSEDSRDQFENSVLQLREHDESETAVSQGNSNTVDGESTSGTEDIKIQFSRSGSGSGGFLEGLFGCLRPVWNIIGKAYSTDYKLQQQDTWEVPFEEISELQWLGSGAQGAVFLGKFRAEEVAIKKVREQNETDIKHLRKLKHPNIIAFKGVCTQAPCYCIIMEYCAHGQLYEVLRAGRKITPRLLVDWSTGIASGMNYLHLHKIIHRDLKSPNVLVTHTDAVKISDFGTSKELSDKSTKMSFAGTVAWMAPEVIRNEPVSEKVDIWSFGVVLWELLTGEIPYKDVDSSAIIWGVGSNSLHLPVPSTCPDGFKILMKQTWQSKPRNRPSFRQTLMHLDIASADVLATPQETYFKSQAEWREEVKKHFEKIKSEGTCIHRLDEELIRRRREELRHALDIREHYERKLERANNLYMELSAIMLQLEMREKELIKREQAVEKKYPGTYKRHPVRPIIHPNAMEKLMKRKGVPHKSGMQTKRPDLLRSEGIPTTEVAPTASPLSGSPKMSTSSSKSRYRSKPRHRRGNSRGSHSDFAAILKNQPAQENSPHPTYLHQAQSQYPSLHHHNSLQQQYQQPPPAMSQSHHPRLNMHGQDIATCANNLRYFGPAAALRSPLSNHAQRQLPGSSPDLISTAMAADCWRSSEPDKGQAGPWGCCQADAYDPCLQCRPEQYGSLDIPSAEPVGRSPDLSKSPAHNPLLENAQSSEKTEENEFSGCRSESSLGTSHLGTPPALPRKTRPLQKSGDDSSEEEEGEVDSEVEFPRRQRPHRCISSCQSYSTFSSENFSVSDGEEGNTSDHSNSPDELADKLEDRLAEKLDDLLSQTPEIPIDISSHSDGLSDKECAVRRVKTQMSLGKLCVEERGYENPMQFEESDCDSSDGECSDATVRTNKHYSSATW

Sequence of N-lysine methyltransferase SMYD2 (Homo sapiens) (Q9NRG4 whole entry, the tested form may be a part): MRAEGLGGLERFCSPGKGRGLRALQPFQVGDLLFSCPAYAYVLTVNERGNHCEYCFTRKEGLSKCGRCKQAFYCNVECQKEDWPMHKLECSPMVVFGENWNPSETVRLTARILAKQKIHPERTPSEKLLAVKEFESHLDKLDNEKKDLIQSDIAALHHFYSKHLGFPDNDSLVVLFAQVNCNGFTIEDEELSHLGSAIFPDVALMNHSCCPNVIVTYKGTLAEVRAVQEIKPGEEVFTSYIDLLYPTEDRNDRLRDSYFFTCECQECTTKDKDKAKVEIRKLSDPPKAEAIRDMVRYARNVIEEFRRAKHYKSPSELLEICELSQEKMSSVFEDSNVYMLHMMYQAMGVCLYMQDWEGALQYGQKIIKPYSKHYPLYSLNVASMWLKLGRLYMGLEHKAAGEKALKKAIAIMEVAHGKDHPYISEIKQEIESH

Structure (SMILES): Cc1cc(CN)cc(C)c1-c1ncn(C)c1-c1cncn1C
dTagg [3]: 0.9 K

Structure (SMILES): COCC(=O)NC/C=C/c1ccc2ncnc(Nc3ccc(Oc4ccc(C)nc4)c(C)c3)c2c1 [CP-724714]
% of control [4]: 80%

Structure (SMILES): CCC(=O)N1CCN(c2ccc(-n3c(=O)ccc4cnc5ccc(-c6cnc7ccccc7c6)cc5c43)cc2C(F)(F)F)CC1
% of control [5]: 100%

The remaining lines, values ahead:

% of inhibition [1]: -7.2%
Structure (SMILES): CC[C@@H]1[C@H](F)C(=O)N[C@@H]1COc1nccc2cc(C(N)=O)c(OC)cc12 [ZIMLOVISERTIB]

% activity [2]: > 90%
Structure (SMILES): CNCCN1CCC(c2cc(CN(C)C(=O)c3cccc(Oc4ccccc4)c3)ccn2)CC1
